Source: PubChem BioAssay AID1035470 (Broad Institute, 2014)
Inconclusive results are not listed. The source made the active and inactive calls.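 How the source made its calls: active means compound lowering the normal-ribosome reporter at least twice as much as the humanized-ribosome reporter, growth loss under a set limit; inconclusive means no clear call, values can overlap the other calls; inactive means the rest.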

Tested on: E. coli WT-GFP vs G2058-humanized RFP, fluorescence, 24 h
Experiment: growth inhibition of wild-type GFP E. coli versus G2058-humanized strain, dose response, G2058 mutant RFP vs wild-type GFP, cherry-pick, two tests (AID 1035470)
[1] = E. coli WT-GFP vs G2058-humanized RFP mixed culture, total growth OD600, 24 h
[2] = measured here: G2058 humanized mutant RFP growth
[3] = E. coli WT-GFP vs G2058-humanized RFP mixed culture, OD600 growth, 24 h, test 1
[4] = measured here: mutant RFP, test 1
[5] = measured here: wild-type GFP, test 1

CN1C(=O)c2cccc3c(S(=O)(=O)NCCc4ccccc4)ccc1c23
AC50: > 100 µM (inactive) | AC50 [1]: > 100 µM

C(=C/c1nccc2c1[nH]c1ccccc12)/c1ccc2c(c1)OCO2
AC50 [2]: > 100 µM

CC(=O)NCCOc1nc(N2CCCCC2)nc(N2CCCCC2)n1
AC50: > 100 µM (inactive)

CCc1ccc(OCC(=O)NCc2ccco2)c(Br)c1
AC50: > 100 µM (inactive)

COc1ccc(Nc2oc(-c3ccco3)nc2S(=O)(=O)c2ccc(F)cc2)cc1
AC50: 8.11 µM | AC50 [3]: 29 µM | AC50 [4]: 37.6 µM | AC50 [5]: 4.64 µM

N#CCC(=O)Nc1ccc(C(=O)OCC(=O)Nc2ccc3ccccc3c2)cc1
AC50: > 100 µM (inactive)

O=S1(=O)N[C@H](Cc2ccccc2)COc2cc(N3CCSCC3)ccc21
AC50 [1]: > 100 µM

Cc1ccccc1OCc1nc2ccccc2n1C
AC50: > 100 µM (inactive)

CCCC(=O)Nc1cccc(C(=O)Nc2ccccc2OCC)c1
AC50: > 100 µM (inactive)

COc1ccc(-c2noc(CCc3ccccc3)n2)cc1
AC50: > 100 µM (inactive)

C=C1c2cc3c(cc2NC(=S)N1Cc1ccccc1)OCO3
AC50 [1]: > 100 µM

COC(=O)C[C@H]1C[C@@H]2c3cc(NC(=O)Nc4ccc(C(F)(F)F)cc4)ccc3O[C@@H]2[C@H](CO)O1
AC50: > 100 µM (inactive)

Nc1[nH]c(C(=O)c2ccccc2)c(-c2ccc(Br)cc2)c1C(=O)c1cccs1
AC50: > 100 µM (inactive) | AC50 [1]: > 100 µM

COC(C(=O)Nc1ccnn1C1CCN(Cc2ccc(Cl)s2)CC1)c1ccccc1 (stereo unspecified)
AC50: > 100 µM (inactive) | AC50 [2]: > 100 µM

COc1ccc(C(=O)CSc2nc3ccccc3n2CC(=O)c2ccccc2)cc1
AC50: > 100 µM (inactive) | AC50 [2]: > 100 µM

Cc1cccc(NC(=O)c2nc(S(=O)(=O)Cc3ccccc3)ncc2Cl)c1
AC50 [1]: > 100 µM

COc1ccc(NC(=O)CSc2n[nH]c(-c3ccncc3)n2)c([N+](=O)[O-])c1
AC50 [1]: > 100 µM

Cn1c(-[n+]2c(-c3ccccc3)cc(-c3ccccc3)cc2-c2ccccc2)nc2c([N+](=O)[O-])cccc21
AC50: > 100 µM (inactive)

CCOC(=O)c1c(CS(=O)(=O)c2ccccc2)n(C)c2cc(Br)c(O)cc12
AC50: > 100 µM (inactive)

O=C(OCC1COc2ccccc2O1)c1ccccc1F (stereo unspecified)
AC50 [2]: > 100 µM

Cc1cccc(-c2ccc([C@H]3[C@H](CO)N4CCCCN(S(=O)(=O)c5ccccc5C)C[C@@H]34)cc2)c1
AC50: > 100 µM (inactive) | AC50 [1]: > 100 µM

COc1ccc(Oc2ccc(C(F)(F)F)cc2NC(=O)CC(CC(=O)O)c2ccccc2)cc1 (stereo unspecified)
AC50: > 100 µM (inactive) | AC50 [1]: > 100 µM

Cc1nnn(C23CC4CC(CC(CC(=O)Nc5ccc(C)c(C)c5)(C4)C2)C3)n1
AC50: > 100 µM (inactive) | AC50 [1]: > 100 µM

CCn1c(COc2cccc(OC)c2)nnc1SCC(=O)Nc1cc(OC)ccc1OC
AC50 [2]: 19.4 µM

COc1ccc(OC)c(S(=O)(=O)Nc2cccc3ccc(O)cc23)c1
AC50: > 100 µM (inactive)

O=C(Nc1cccc2c1CCCC2)c1ccco1
AC50: > 100 µM (inactive) | AC50 [1]: > 100 µM

CC1CCCC(NC(=O)COC(=O)Cc2c[nH]c3ccccc23)C1C (stereo unspecified)
AC50: > 100 µM (inactive) | AC50 [1]: > 100 µM

COc1ccccc1OCC(=O)Nc1ccc(S(=O)(=O)N2CCCCCC2)cc1
AC50: > 100 µM (inactive) | AC50 [1]: > 100 µM

COc1cccc(CNC(=O)CCSCc2ccccc2F)c1
AC50: > 100 µM (inactive) | AC50 [2]: > 100 µM

COc1cccc(S(=O)(=O)N2CCCCN3[C@H](C2)[C@H](c2ccc(C#CC(C)C)cc2)[C@@H]3CO)c1
AC50: > 100 µM (inactive)

COc1ccccc1CNC(=O)CN1C(=O)NC(c2ccccc2)(c2ccccc2)C1=O
AC50: > 100 µM (inactive) | AC50 [1]: > 100 µM

CC1CCCN(c2ccc(C(=O)NCCc3ccccc3)cn2)C1 (stereo unspecified)
AC50: > 100 µM (inactive)

CN(C)C(CNS(=O)(=O)c1cc([N+](=O)[O-])ccc1Cl)c1ccco1 (stereo unspecified)
AC50: > 100 µM (inactive)

C[C@H]1CN([C@@H](C)CO)C(=O)CCCn2nncc2CO[C@@H]1CN(C)Cc1ccccc1C(F)(F)F
AC50 [1]: > 100 µM | AC50 [2]: 6.94 µM

FC(F)(F)c1ccc(Cl)c(-n2c(Cc3cccs3)n[nH]c2=S)c1
AC50: > 100 µM (inactive)

Cc1nn(CC(=O)OCCOc2ccc(Br)cc2)c(C)c1[N+](=O)[O-]
AC50: > 100 µM (inactive)

O=C(Nc1cccc(S(=O)(=O)c2cccc(NC(=O)C3CC3)c2)c1)C1CC1
AC50 [1]: > 100 µM

CN1OC[C@@H]2CN(C(=O)c3ccco3)[C@H](c3ccc(-c4ccc(C#N)cc4)cc3)C[C@@H]21
AC50: > 100 µM (inactive) | AC50 [1]: > 100 µM

Brc1cc2c(cc1Br)OCCOCCOCCO2
AC50: > 100 µM (inactive) | AC50 [1]: > 100 µM | AC50 [2]: > 100 µM

COC(=O)c1ccccc1NC(=O)c1ccc2c(c1)CC(C)O2 (stereo unspecified)
AC50: > 100 µM (inactive) | AC50 [1]: 52.3 µM

CSCCC1NC(=O)N(C(C)C(=O)Nc2cc(Cl)cc(Cl)c2)C1=O (stereo unspecified)
AC50: > 100 µM (inactive) | AC50 [1]: > 100 µM | AC50 [2]: 7.38 µM

COc1ccc(OC)c(-c2nn(-c3ccccc3)cc2C(=O)N2CCc3ccccc3C2)c1
AC50 [1]: > 100 µM

CC(=O)Nc1cccc(OCCCOc2cccc([N+](=O)[O-])c2)c1
AC50: > 100 µM (inactive) | AC50 [1]: > 100 µM

O=S(=O)(NOCc1ccc(Cl)cc1)c1ccc(Cl)cc1
AC50 [1]: > 100 µM

CCOC(=O)c1sc(Nc2cccc(Cl)c2)nc1C
AC50: > 100 µM (inactive)

Cc1onc(-c2ccccc2Cl)c1C(=O)Nc1ccc(Cl)cn1
AC50 [1]: > 100 µM

Nc1ccc(C(=O)OCCc2ccccc2)cc1
AC50: > 100 µM (inactive) | AC50 [2]: 45.9 µM

COc1cccc(-c2ccc(NC(=O)C3CCCN(Cc4cnn(C(C)C)c4)C3)cc2)c1 (stereo unspecified)
AC50: > 100 µM (inactive)

COc1ccc(-c2csc(NC(=O)c3ccccc3S(C)(=O)=O)n2)cc1
AC50: > 100 µM (inactive) | AC50 [1]: > 100 µM | AC50 [2]: > 100 µM

O=C(CCc1ccccc1)Nc1sc2c(c1C(=O)O)CCCC2
AC50: > 100 µM (inactive)

CN(C)CCCNc1ccc(-c2cc(Nc3cccc(Cl)c3)ncn2)cn1
AC50: > 100 µM (inactive)

CC(C)(C)C1CCC(OC(=O)C[N+]2(C)CCCCC2)CC1 (stereo unspecified)
AC50: > 100 µM (inactive) | AC50 [1]: > 100 µM

CN(Cc1nnc(-c2ccc(F)cc2)o1)c1ccccc1
AC50: > 100 µM (inactive) | AC50 [1]: > 100 µM

O=C(CSc1ccc(-c2cccnc2)nn1)N1CCCc2ccccc21
AC50: > 100 µM (inactive)

CCn1ncc(Br)c1C(=O)Nc1ccc2c(c1)OCCO2
AC50: > 100 µM (inactive)

O=C(Nc1ccc2nc(-c3ccccc3)[nH]c2c1)c1cccs1
AC50: > 100 µM (inactive) | AC50 [1]: 51.4 µM

O=C1c2cccc(OCC(=O)N3CCCc4ccccc43)c2CCN1Cc1cccnc1
AC50: > 100 µM (inactive) | AC50 [1]: > 100 µM

Cc1cccc(C)c1-n1nnnc1C1(C)CCC(=O)N1Cc1cccs1 (stereo unspecified)
AC50: > 100 µM (inactive)

CCOc1ccc2oc(-c3ccccc3)c(C(=O)N(C)C)c2c1
AC50: > 100 µM (inactive) | AC50 [1]: > 100 µM

Cc1cc(C(=O)OCC(=O)Nc2cccc(S(N)(=O)=O)c2)c2ccccc2n1
AC50: > 100 µM (inactive)

COCC(C)NC(=O)c1nn(Cc2ccccc2)c(=O)c2ccccc12 (stereo unspecified)
AC50 [1]: > 100 µM

CCCN(CC(=O)Nc1ccccc1C)C(=O)c1cccc(S(=O)(=O)N2CCc3ccccc3C2)c1
AC50: > 100 µM (inactive) | AC50 [1]: > 100 µM

O=C(NCCc1ccccn1)c1cccc(S(=O)(=O)N2CCc3ccccc32)c1
AC50: > 100 µM (inactive) | AC50 [1]: > 100 µM

N#Cc1c(N)nc(SCc2ccccc2)c(C#N)c1-c1ccco1
AC50: > 100 µM (inactive)

CSc1ccccc1OCc1cc(C(=O)N[C@H]2CCCCNC2=O)no1
AC50: > 100 µM (inactive) | AC50 [1]: > 100 µM

COc1ccc(Nc2nc(N)c([N+](=O)[O-])c(N3CCOCC3)n2)cc1
AC50: > 100 µM (inactive) | AC50 [1]: > 100 µM

Cc1cccc(-c2ccc([C@@H]3[C@@H](CO)N4CCCCN(S(=O)(=O)c5ccccc5C)C[C@H]34)cc2)c1
AC50 [1]: > 100 µM

NC(=O)c1cc(NC(=O)c2cc(Br)c(Br)s2)cc(C(N)=O)c1
AC50: > 100 µM (inactive)

CC1C=Cc2ccccc2N1C(=O)c1ccccc1 (stereo unspecified)
AC50: > 100 µM (inactive)

Cc1cccc(N2CCN(Cc3nc(-c4ccc(F)cc4F)oc3C)CC2)n1
AC50: > 100 µM (inactive) | AC50 [1]: > 100 µM

c1ccc(CSCc2ccccc2)cc1
AC50 [2]: > 100 µM

COc1cccc(CN(C)Cc2nc(Cc3ccccc3Cl)no2)c1
AC50: > 100 µM (inactive) | AC50 [1]: > 100 µM

Cc1noc(C)c1NC(=O)Nc1ccc2c(c1)C(=O)N([C@@H](C)CO)C[C@@H](C)[C@H](CN(C)C(=O)Nc1ccc3c(c1)OCO3)OCCCC[C@H](C)O2
AC50 [1]: > 100 µM

O=C(Nc1nc2ccccc2n1CCN1CCOCC1)c1ccccc1
AC50: > 100 µM (inactive)

NC(=O)c1ccsc1NC(=O)COC(=O)CSc1ccc(Cl)cc1
AC50: > 100 µM (inactive) | AC50 [1]: > 100 µM

O=C(Nc1cccc(Cl)c1)N1C[C@H]2[C@@H](c3ccccc31)[C@H](CO)N2Cc1ccncc1
AC50: > 100 µM (inactive)

O=C(Nc1cccc(O)c1)c1cccc(S(=O)(=O)Nc2cccc(O)c2)c1
AC50: > 100 µM (inactive)

C=CCSc1cc(C)nc2c(-c3ccccc3)c(C)nn12
AC50: > 100 µM (inactive)

Nc1ncncc1-c1ccc2ccccc2c1
AC50: > 100 µM (inactive) | AC50 [2]: 48.9 µM

CCc1ccc2nc(N(CCCN(C)C)C(=O)c3ccc4c(c3)OCCO4)sc2c1
AC50: > 100 µM (inactive) | AC50 [1]: > 100 µM

Cc1cc(C(=O)Nc2ccc3ccccc3c2)c(C)o1
AC50: > 100 µM (inactive) | AC50 [1]: > 100 µM

COC(=O)c1c(NC(=O)CCC(=O)O)sc(Cc2ccccc2)c1C
AC50: 28.4 µM | AC50 [3]: 27 µM | AC50 [1]: 35.7 µM | AC50 [2]: 5.11 µM | AC50 [4]: 11.9 µM | AC50 [5]: 1.53 µM

N#Cc1ccc(-c2ccc(C3[C@H]4CNC[C@@H]3N4S(=O)(=O)c3ccc(-c4ccccc4)cc3)cc2)cc1 (stereo partly specified)
AC50 [1]: > 100 µM

CC(=O)Oc1ccc(N(c2ccccc2)S(=O)(=O)c2ccc(C)cc2)cc1
AC50 [1]: > 100 µM

COc1cccc(NC(=O)C(C)SCc2ccccc2)c1 (stereo unspecified)
AC50 [1]: > 100 µM
